This passage reports Blood glucose and Ratio results from ChEMBL document CHEMBL1132521, “Synthesis and hypoglycemic effect of chrysin derivatives” (Bioorg Med Chem Lett, 1999).

Common to all, as to format: functional
The subject of test [1] is Mus musculus. Nature of the test: In vivo hypoglycemic activity after administration (40 mg/kg) in mice on day 0 was determined.
A short description of test [2]: Ratio of hypoglycemic activity in mice was tested on day 7.
In test [3] the test system is Mus musculus. The test is described as follows: In vivo hypoglycemic activity after administration (40 mg/kg) in mice on day 7 was determined.
In test [4] the test system is Mus musculus. Nature of the test: In vivo hypoglycemic activity after administration (50 mg/kg) in mice on day 7 was determined.
Test [5] deals with Mus musculus. Nature of the test: In vivo hypoglycemic activity after administration (50 mg/kg) in mice on day 0 was determined.

As for `O=C(Oc1cc(O)c2c(=O)cc(-c3ccccc3)oc2c1)c1ccc(F)cc1`, the Blood glucose with Mus musculus [1] came out at 458.2 mg/dL; in the test on Mus musculus [3], 362.5 mg/dL. Also, in test [2], the Ratio amounted to 79.3.
For the compound `CCCOc1cc(O)c2c(=O)cc(-c3ccccc3)oc2c1`, the Ratio in test [2] is 59.5. In addition, the Blood glucose in the test with Mus musculus [4] was found to be 237.8 mg/dL; in the test on Mus musculus [5], 400 mg/dL.
As for `O=C(Cc1ccccc1)Oc1cc(O)c2c(=O)cc(-c3ccccc3)oc2c1`, the Ratio in test [2] came out at 103.9. Moreover, the Blood glucose in the test with Mus musculus [4] stood at 515.6 mg/dL; in the test with Mus musculus [5], 496.2 mg/dL.
Take `O=C(/C=C/c1ccccc1)Oc1cc(O)c2c(=O)cc(-c3ccccc3)oc2c1`: the Ratio in test [2] stood at 92.6. Besides, the Blood glucose with Mus musculus [4] is 407.9 mg/dL; with Mus musculus [5] it was 440.6 mg/dL.
As to `CC(=O)Oc1ccccc1C(=O)Oc1cc(O)c2c(=O)cc(-c3ccccc3)oc2c1`, the Blood glucose is 489.3 mg/dL in the test on Mus musculus [1] and 500.9 mg/dL with Mus musculus [3]. The Ratio in test [2] turned out to be 102.4.
Take `COc1cc(OC)c2c(=O)cc(-c3ccccc3)oc2c1` [CHRYSIN DIMETHYL ETHER]: the Blood glucose in the test with Mus musculus [1] was determined as 444.4 mg/dL; in the test on Mus musculus [3] it was 399.5 mg/dL. In test [2], the Ratio worked out at 89.9.
For `COc1ccc(/C=C/C(=O)Oc2cc(O)c3c(=O)cc(-c4ccccc4)oc3c2)cc1` the same measures were 475.9 mg/dL, 333.3 mg/dL and 70.
As for `CCCCCCCCCCCCOc1cc(O)c2c(=O)cc(-c3ccccc3)oc2c1`, the Ratio in test [2] is on record as 81.9. Further, the Blood glucose with Mus musculus [4] amounted to 381.3 mg/dL; in the test with Mus musculus [5] it was 465.6 mg/dL.
For `COc1cc(O)c2c(=O)cc(-c3ccccc3)oc2c1` [TECHTOCHRYSIN] the same measures were 87.8, 399.6 mg/dL and 455 mg/dL.
